Laboratory results: patent US20050245399A1, “Pyrazole derivatives as herbicidal compositions containing them” (ISHIHARA SANGYO KAISHA, LTD., priority 2004, published 2005)

What was measured:
Assay type in all cases: in vivo
[1] = system: rice (Oryza sativa L.), ORYSA; test: Test Example 2 post-emergence (foliage treatment) herbicidal activity, ORYSA; details: 63 g a.i./ha
In short: (§1)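 A small sprayer delivered the diluted WP or EC formulation (500 L/ha water, 0.1% v/v spreader) over emerged seedlings in upland soil pots. Damage relative to untreated plants was graded visually from 0 to 100% three weeks or so later (days 20-23).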

[2] = system: barnyardgrass (Echinochiloa oryzicola: ECHOR); test: Test Example 3 water application herbicidal activity (paddy), ECHOR; details: 63 g a.i./ha, water application under submerged condition at 0.5 leaf stage, visually observed 14th day after application; 0 = untreated control, 100 = complete kill
In short: (§2)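 Flooded paddy-soil pots in greenhouse; ECHOR and SCPJO sown, SAGPY tubers planted a day later, compound applied into 3–4 cm water at weeds' 0.5-leaf stage. Rice transplanted at 2-leaf stage, treated day 4 after transplanting. Visual growth control 0–100% at 14 days (weeds) and 21 days (rice) after application.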

[3] = system: green foxtail (Setaria viridis L.): SETVI; test: Test Example 1 pre-emergence herbicidal activity, SETVI; details: visually observed 20th to 23rd day after application
In short: (§3)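 Herbicidal effect in pre-emergence treatment: formulated compound sprayed at 500 L/ha water one day after sowing in upland field soil pots, with visual 0–100% growth-control scores recorded 20–23 days after application.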

[4] = system: corn (Zea mays L.): ZEAMX; test: Test Example 1 pre-emergence herbicidal activity, ZEAMX; details: visually observed 20th to 23rd day after application
In short: as §3

[5] = system: rice (Oryza sativa L.: ORYSA); test: Test Example 3 water application herbicidal activity (paddy), transplanted rice ORYSA; details: 63 g a.i./ha, water application 4th day after transplantation of 2 leaf stage rice, visually observed 21st day after application; 0 = untreated control, 100 = complete kill
Source text: Paddy field soil was put into a 1/1,000,000 ha pot and seeds of barnyardgrass (Echinochiloa oryzicola: ECHOR) and japanese bulrush (Scirpus juncoides: SCPJO) were sown and slightly covered with soil. Then the pot was left to stand still in a greenhouse in a state where the depth of flooding water was from 0.5 to 1 cm, and one day later, tubers of japanese ribbon wapato (Sagittaria pygmaea: SA GPY) were planted. Thereafter, the depth of flooding water was maintained at a level of from 3 to 4 cm, and when barnyardgrass and japanese bulrush reached a 0.5 leaf stage, an aqueous diluted solution of a wettable powder or emulsifiable concentrate having the compound of the present invention formulated in accordance with a usual formulation method, was uniformly applied under submerged condition by a pipette so that the dose of the active ingredient would be at a predetermined level. On the other hand, paddy filed soil was put into a 1/1,000,000 ha pot and puddled and leveled, and the depth of flooding water was from 3 to 4 cm. One day later, rice (Oryza sativa L.: ORYSA) of 2 leaf stage was transplanted in a depth of 3 cm. On the 4th day after the transplantation, the compound of the present invention was applied in the same manner as described above. On the 14th day after the application of the herbicide, the growth of barnyardgrass, japanese burlush and japanese ribbon wapato was visually observed and on the 21st day after the application of the herbicide, the growth of rice was visually observed, and the herbicidal effects were evaluated by growth controlling degrees (%) ranging from 0 (equivalent to the untreated control) to 100 (complete kill), whereby the results shown in Table 6, were obtained. Compound Nos. in Table 6 correspond to Compound Nos. in Table 1 and 2 given hereinbefore.

[6] = system: wheat (Triticum aestivum L.): TRZAX; test: Test Example 1 pre-emergence herbicidal activity, TRZAX; details: visually observed 20th to 23rd day after application
In short: as §3

[7] = system: corn (Zea mays L.), ZEAMX; test: Test Example 2 post-emergence (foliage treatment) herbicidal activity, ZEAMX; details: 63 g a.i./ha
In short: (§4)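 Foliar spray of formulated compound (500 L/ha dilution water, 0.1% v/v spreader) onto young potted plants at defined leaf stages. Scored 0-100% by visual inspection 20-23 d post-spray.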

[8] = system: barnyardgrass (Echinochloa crus-galli L.), ECHCG; test: Test Example 2 post-emergence (foliage treatment) herbicidal activity, ECHCG; details: 63 g a.i./ha
In short: as §1

[9] = system: prickly sida (Sida spinosa L.): SEDSP; test: Test Example 1 pre-emergence herbicidal activity, SIDSP; details: visually observed 20th to 23rd day after application
In short: as §3

[10] = system: velvetleaf (Abutilon theophrasti), ABUTH; test: Test Example 2 post-emergence (foliage treatment) herbicidal activity, ABUTH; details: 63 g a.i./ha
In short: as §4

[11] = system: japanese bulrush (Scirpus juncoides: SCPJO); test: Test Example 3 water application herbicidal activity (paddy), SCPJO; details: 63 g a.i./ha, water application under submerged condition at 0.5 leaf stage, visually observed 14th day after application; 0 = untreated control, 100 = complete kill
In short: as §2

[12] = system: green foxtail (Setaria viridis L.), SETVI; test: Test Example 2 post-emergence (foliage treatment) herbicidal activity, SETVI; details: 63 g a.i./ha
In short: as §4

[13] = system: rice (Oryza sativa L.): ORYSA; test: Test Example 1 pre-emergence herbicidal activity, ORYSA; details: visually observed 20th to 23rd day after application
In short: as §3

[14] = system: wheat (Triticum aestivum L.), TRZAX; test: Test Example 2 post-emergence (foliage treatment) herbicidal activity, TRZAX; details: 63 g a.i./ha
In short: as §4

[15] = system: soybean (Glycine max Merr.): GLXMA; test: Test Example 1 pre-emergence herbicidal activity, GLXMA; details: visually observed 20th to 23rd day after application
In short: as §3

[16] = system: prickly sida (Sida spinosa L.), SIDSP; test: Test Example 2 post-emergence (foliage treatment) herbicidal activity, SIDSP; details: 63 g a.i./ha
In short: as §4

[17] = system: crabgrass (Digitaria sanguinalis L.), DIGSA; test: Test Example 2 post-emergence (foliage treatment) herbicidal activity, DIGSA; details: 63 g a.i./ha
In short: as §1

[18] = system: japanese ribbon wapato (Sagittaria pygmaea: SA GPY); test: Test Example 3 water application herbicidal activity (paddy), SAGPY; details: 63 g a.i./ha, water application under submerged condition, tubers planted, visually observed 14th day after application; 0 = untreated control, 100 = complete kill
In short: as §2

[19] = system: redroot pigweed (Amaranthus retroflexus L.): AMARE; test: Test Example 1 pre-emergence herbicidal activity, AMARE; details: visually observed 20th to 23rd day after application
In short: as §3

[20] = system: soybean (Glycine max Merr.), GLXMA; test: Test Example 2 post-emergence (foliage treatment) herbicidal activity, GLXMA; details: 63 g a.i./ha
In short: as §4

[21] = system: velvetleaf (Abutilon theophrasti): ABUTH; test: Test Example 1 pre-emergence herbicidal activity, ABUTH; details: visually observed 20th to 23rd day after application
In short: as §3

[22] = system: barnyardgrass (Echinochloa crus-galli L.): ECHCG; test: Test Example 1 pre-emergence herbicidal activity, ECHCG; details: visually observed 20th to 23rd day after application
In short: as §3

[23] = system: crabgrass (Digitaria sanguinalis L.): DIGSA; test: Test Example 1 pre-emergence herbicidal activity, DIGSA; details: visually observed 20th to 23rd day after application
In short: as §3

[24] = system: redroot pigweed (Amaranthus retroflexus L.), AMARE; test: Test Example 2 post-emergence (foliage treatment) herbicidal activity, AMARE; details: 63 g a.i./ha
In short: as §1

Structure (SMILES)	growth controlling degree, ORYSA [1]	growth controlling degrees (%) ECHOR [2]	Pre-emergence Herbicidal Activity SETVI (growth controlling degree) ([3]; Rate 63 g a.i./ha)	Pre-emergence Herbicidal Activity ZEAMX (growth controlling degree) ([4]; Rate 63 g a.i./ha)	growth controlling degrees (%) ORYSA [5]	Pre-emergence Herbicidal Activity TRZAX (growth controlling degree) ([6]; Rate 63 g a.i./ha)	growth controlling degree, ZEAMX [7]	growth controlling degree, ECHCO [8]	Pre-emergence Herbicidal Activity SIDSP (growth controlling degree) ([9]; Rate 63 g a.i./ha)	growth controlling degree, ABUTH [10]	growth controlling degrees (%) SCPJO [11]	growth controlling degree, SETVI [12]	Pre-emergence Herbicidal Activity ORYSA (growth controlling degree) ([13]; Rate 63 g a.i./ha)	growth controlling degree, TRZAX [14]	Pre-emergence Herbicidal Activity GLXMA (growth controlling degree) ([15]; Rate 63 g a.i./ha)	growth controlling degree, SIDSP [16]	growth controlling degree, DIGSP [17]	growth controlling degrees (%) SAGPY [18]	growth controlling degree, GLXMA [20]	growth controlling degree, AMARE [24]	further results
Cn1nc(-c2c(F)cc(Cl)c(OC(F)F)c2NC(=O)C(F)(F)F)c(Cl)c1OC(F)F [Compound 1-83]	50%	100%	100%	20%	50%	10%	80%	100%	100%	100%	95%	100%	60%	10%	60%	100%	100%	80%	60%	100%	Pre-emergence Herbicidal Activity AMARE (growth controlling degree) ([19]; Rate 63 g a.i./ha): 100%; Pre-emergence Herbicidal Activity ABUTH (growth controlling degree) ([21]; Rate 63 g a.i./ha): 80%; Pre-emergence Herbicidal Activity ECHCG (growth controlling degree) ([22]; Rate 63 g a.i./ha): 90%; Pre-emergence Herbicidal Activity DIGSP (growth controlling degree) ([23]; Rate 63 g a.i./ha): 100%
COc1c(Cl)cc(F)c(-c2nn(C)c(OC(F)F)c2Cl)c1NC(=O)OCc1ccccc1Cl [Compound 1-63]	60%	100%	30%	0%	40%	10%	70%	100%	20%	100%	70%	100%	0%	40%	0%	100%	90%	70%	60%	100%	Pre-emergence Herbicidal Activity AMARE (growth controlling degree) ([19]; Rate 63 g a.i./ha): 100%; Pre-emergence Herbicidal Activity ABUTH (growth controlling degree) ([21]; Rate 63 g a.i./ha): 30%; Pre-emergence Herbicidal Activity ECHCG (growth controlling degree) ([22]; Rate 63 g a.i./ha): 30%; Pre-emergence Herbicidal Activity DIGSP (growth controlling degree) ([23]; Rate 63 g a.i./ha): 40%
COc1ccc(OC(=O)Nc2c(OC)c(Cl)cc(F)c2-c2nn(C)c(OC(F)F)c2Cl)cc1 [Compound 1-57]	95%	100%	95%	0%	50%	30%	90%	100%	70%	100%	100%	100%	20%	40%	0%	100%	100%	100%	90%	100%	Pre-emergence Herbicidal Activity AMARE (growth controlling degree) ([19]; Rate 63 g a.i./ha): 100%; Pre-emergence Herbicidal Activity ABUTH (growth controlling degree) ([21]; Rate 63 g a.i./ha): 60%; Pre-emergence Herbicidal Activity ECHCG (growth controlling degree) ([22]; Rate 63 g a.i./ha): 70%; Pre-emergence Herbicidal Activity DIGSP (growth controlling degree) ([23]; Rate 63 g a.i./ha): 80%
COCCOC(=O)N(C(=O)OCCOC)c1c(OC)c(Cl)cc(F)c1-c1nn(C)c(OC(F)F)c1Cl [Compound 1-54]	98%	98%	–	–	40%	–	50%	90%	–	100%	30%	80%	–	30%	–	100%	70%	30%	60%	100%	Pre-emergence Herbicidal Activity SETVI (growth controlling degree) ([3]; Rate 125 g a.i./ha): 100%; Pre-emergence Herbicidal Activity ZEAMX (growth controlling degree) ([4]; Rate 125 g a.i./ha): 0%; Pre-emergence Herbicidal Activity TRZAX (growth controlling degree) ([6]; Rate 125 g a.i./ha): 20%; Pre-emergence Herbicidal Activity SIDSP (growth controlling degree) ([9]; Rate 125 g a.i./ha): 95%; Pre-emergence Herbicidal Activity ORYSA (growth controlling degree) ([13]; Rate 125 g a.i./ha): 30%; Pre-emergence Herbicidal Activity GLXMA (growth controlling degree) ([15]; Rate 125 g a.i./ha): 10%; Pre-emergence Herbicidal Activity AMARE (growth controlling degree) ([19]; Rate 125 g a.i./ha): 100%; Pre-emergence Herbicidal Activity ABUTH (growth controlling degree) ([21]; Rate 125 g a.i./ha): 80%; Pre-emergence Herbicidal Activity ECHCG (growth controlling degree) ([22]; Rate 125 g a.i./ha): 20%; Pre-emergence Herbicidal Activity DIGSP (growth controlling degree) ([23]; Rate 125 g a.i./ha): 100%
CCOC(=O)CN(C=O)c1c(OC)c(Cl)cc(F)c1-c1nn(C)c(OC(F)F)c1Cl [Compound 1-19]	20%	70%	–	–	30%	–	0%	30%	–	90%	30%	30%	–	10%	–	90%	30%	20%	60%	100%	Pre-emergence Herbicidal Activity SETVI (growth controlling degree) ([3]; Rate 125 g a.i./ha): 10%; Pre-emergence Herbicidal Activity ZEAMX (growth controlling degree) ([4]; Rate 125 g a.i./ha): 20%; Pre-emergence Herbicidal Activity TRZAX (growth controlling degree) ([6]; Rate 125 g a.i./ha): 0%; Pre-emergence Herbicidal Activity SIDSP (growth controlling degree) ([9]; Rate 125 g a.i./ha): 50%; Pre-emergence Herbicidal Activity ORYSA (growth controlling degree) ([13]; Rate 125 g a.i./ha): 0%; Pre-emergence Herbicidal Activity GLXMA (growth controlling degree) ([15]; Rate 125 g a.i./ha): 0%; Pre-emergence Herbicidal Activity ABUTH (growth controlling degree) ([21]; Rate 125 g a.i./ha): 20%; Pre-emergence Herbicidal Activity ECHCG (growth controlling degree) ([22]; Rate 125 g a.i./ha): 0%; Pre-emergence Herbicidal Activity DIGSP (growth controlling degree) ([23]; Rate 125 g a.i./ha): 50%
